Source: publication PMC8070004, “Isorhamnetin Ameliorates Dry Eye Disease via CFTR Activation in Mice” (International Journal of Molecular Sciences, 2021)

Experiments:
human ANO1 = target: T1, human ANO1 (Homo sapiens, UniProt Q5XXA6); assay: Apical membrane current in FRT cells expressing human ANO1; assay type: cell-based; conditions: 30 μM added 10 min prior to ANO1 activation by 100 μM ATP
T1 construct: expressed in transfected cells; host or cells: FRT cells (FRT-ANO1)
T1 sequence (Q5XXA6 1-986): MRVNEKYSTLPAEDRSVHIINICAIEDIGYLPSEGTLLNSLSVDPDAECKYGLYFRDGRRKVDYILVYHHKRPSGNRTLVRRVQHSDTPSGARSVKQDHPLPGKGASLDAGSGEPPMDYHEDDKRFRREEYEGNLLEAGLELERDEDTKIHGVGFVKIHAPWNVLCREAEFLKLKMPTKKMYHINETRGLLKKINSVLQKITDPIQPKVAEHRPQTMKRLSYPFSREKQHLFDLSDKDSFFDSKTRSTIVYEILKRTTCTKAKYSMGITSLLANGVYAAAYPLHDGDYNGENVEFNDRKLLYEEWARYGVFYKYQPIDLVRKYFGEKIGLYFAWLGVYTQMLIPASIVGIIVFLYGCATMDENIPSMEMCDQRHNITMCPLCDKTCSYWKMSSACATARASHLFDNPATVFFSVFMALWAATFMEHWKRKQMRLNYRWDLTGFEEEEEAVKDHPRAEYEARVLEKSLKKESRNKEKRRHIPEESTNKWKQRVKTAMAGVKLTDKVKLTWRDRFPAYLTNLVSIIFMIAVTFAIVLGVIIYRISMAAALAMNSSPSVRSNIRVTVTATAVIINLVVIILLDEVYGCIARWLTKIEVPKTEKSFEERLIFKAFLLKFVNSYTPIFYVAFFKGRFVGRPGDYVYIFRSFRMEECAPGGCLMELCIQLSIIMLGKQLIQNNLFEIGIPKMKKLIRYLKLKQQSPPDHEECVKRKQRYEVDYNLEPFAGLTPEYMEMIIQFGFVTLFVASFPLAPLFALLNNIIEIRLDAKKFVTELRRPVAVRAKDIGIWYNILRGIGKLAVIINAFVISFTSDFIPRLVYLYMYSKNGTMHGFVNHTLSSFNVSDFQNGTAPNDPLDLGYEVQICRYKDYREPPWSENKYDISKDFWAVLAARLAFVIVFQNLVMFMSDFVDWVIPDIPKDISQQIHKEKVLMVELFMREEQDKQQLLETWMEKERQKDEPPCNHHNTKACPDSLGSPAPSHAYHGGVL

intracellular cAMP = assay: cAMP assay in FRT cells; assay type: cell-based, rat; conditions: 30 µM
Protocol: FRT cells grown on 96-well culture plates were washed three times with PBS at 37 °C and then incubated in induction buffer from a cAMP assay kit (cAMP-Glo Assay; Promega, Madison, WI, USA) at 37 °C containing 100 μM 3-isobutyl-1-methylxanthine (IBMX) for 10 min in the absence or presence of forskolin or isorhamnetin. Cytosolic cAMP was measured using the kit according to the manufacturer’s protocol.

WT-CFTR = WT-CFTR (Homo sapiens, UniProt P13569); assay: Whole-cell patch clamp in CHO-K1 cells expressing WT-CFTR; assay type: cell-based; design: expressed in transfected cells; host or cells: CHO-K1; conditions: 30 μM isorhamnetin; linear current/voltage relationship
Protocol: Whole-cell, patch clamp recordings were performed on CFTR-expressing CHO cells. The bath solution contained (in mM) 140 NMDG-Cl, 1 CaCl2, 1 MgCl2, 10 glucose, and 10 HEPES (pH 7.4). The pipette solution contained (in mM) 130 CsCl, 0.5 EGTA, 1 MgCl2, 1 Tris-ATP, and 10 HEPES (pH 7.2). […] Seal resistances were between 3 and 10 GΩ. After establishing the whole-cell configuration, CFTR was activated by forskolin and/or isorhamnetin. […] Recordings were made at room temperature using an Axopatch-200B (Axon Instruments, San Jose, CA, USA). Currents were digitized with a Digidata 1440A converter (Axon Instruments), filtered at 5 kHz, and sampled at 1 kHz.

ENaC = target: T2, ENaC (Homo sapiens, UniProt P37088+P51168+P51170); assay: ENaC short-circuit current in T84 cells; assay type: cell-based; conditions: 30 μM applied 10 min prior to 100 µM amiloride
T2 construct: endogenous in cells; host or cells: T84 cells (provided by Dr. Min Goo Lee)
Protocol: Snapwell inserts containing CFTR-expressing FRT and T84 cells were mounted in Ussing chambers (Physiologic Instruments, San Diego, CA, USA). Forskolin, isorhamnetin, and CFTRinh-172 were added to the apical and basolateral bath solution. For FRT cells, the apical bath was filled with a half-Cl^− solution and the basolateral bath was filled with HCO^3--buffered solution to generate transepithelial Cl^− gradient (apical, 64 mM; basolateral, 129 mM), and the basolateral membrane was permeabilized with 250 µg/mL amphotericin B. For T84 cells, symmetrical HCO^3--buffered solutions were used, and ENaC was inhibited with amiloride (100 µM). All cells were bathed for a 20-min stabilization period and aerated with 95% O2/5% CO2 at 37 °C. Apical membrane current and short-circuit current were measured with an EVC4000 Multi-Channel V/I Clamp (World Precision Instruments, Sarasota, FL, USA) and recorded using PowerLab 4/35 (AD Instruments, Castle Hill, Australia). Data were collected and analyzed with ADInstruments acquisition software Labchart Pro 7 software. The sampling rate was 4 Hz.

[1] = system: scopolamine-induced dry eye mice; assay: Scopolamine-induced dry eye mouse model (corneal fluorescein staining, tear volume); assay type: in vivo; conditions: 30 µM, three times a day for 10 days
Protocol: Tear volume was measured using phenol red threads (Zone-Quick, Oasis Medical, Glendora, CA, USA) by placing them in the lateral canthi of normal CD-1 or dry eye model-treated BL6 mice for 10 s using forceps. Tear volume was measured using a Vernier caliper as the length of thread wetting under a microscope. For normal CD-1 mice, serial measurements were done to evaluate compound pharmacodynamics compared to the vehicle after topical application of a single, 2.5-μL drop of compound formulations containing 20 μM forskolin, 30 μM isorhamnetin, or 20 μM CFTRinh-172 in PBS with 0.1% DMSO.
To assess corneal epithelial disruption, 5 μL of fluorescein dye (1%) were applied to the ocular surface of mice. Photographs of the eye were taken with a digital camera. Each cornea was scored from 0 to 5 according to the Oxford scheme.
Eight-week-old C57BL/6 mice were used for this experiment. Experimental dry eye was induced by subcutaneous injection of 0.5 mg/100 μL scopolamine hydrobromide (Sigma-Aldrich, St. Louis, MO, USA) three times a day with a standard desiccating environment created by placing the mice in a chamber with a continuous air flow (15 L/min) in a room at 25 °C with an ambient humidity of 12%. […]

T2 sequence (P51168 whole entry): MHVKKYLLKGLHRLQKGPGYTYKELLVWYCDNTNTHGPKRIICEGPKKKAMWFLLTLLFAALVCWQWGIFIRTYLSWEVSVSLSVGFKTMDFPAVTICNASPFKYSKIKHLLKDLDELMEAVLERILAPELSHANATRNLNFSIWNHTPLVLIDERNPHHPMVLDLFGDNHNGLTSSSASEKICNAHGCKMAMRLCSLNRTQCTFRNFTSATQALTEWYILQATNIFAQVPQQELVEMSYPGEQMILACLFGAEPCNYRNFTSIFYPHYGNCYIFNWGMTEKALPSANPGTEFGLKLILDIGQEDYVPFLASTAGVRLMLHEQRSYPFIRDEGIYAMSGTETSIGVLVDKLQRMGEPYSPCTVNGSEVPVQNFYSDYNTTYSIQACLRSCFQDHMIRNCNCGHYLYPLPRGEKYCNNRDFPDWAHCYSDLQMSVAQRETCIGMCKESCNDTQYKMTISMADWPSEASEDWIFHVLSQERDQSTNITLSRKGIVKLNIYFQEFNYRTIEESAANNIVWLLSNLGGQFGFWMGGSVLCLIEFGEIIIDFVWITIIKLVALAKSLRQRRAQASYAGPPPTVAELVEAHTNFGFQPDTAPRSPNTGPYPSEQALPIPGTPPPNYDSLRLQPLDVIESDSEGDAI
T2 sequence (P37088 whole entry): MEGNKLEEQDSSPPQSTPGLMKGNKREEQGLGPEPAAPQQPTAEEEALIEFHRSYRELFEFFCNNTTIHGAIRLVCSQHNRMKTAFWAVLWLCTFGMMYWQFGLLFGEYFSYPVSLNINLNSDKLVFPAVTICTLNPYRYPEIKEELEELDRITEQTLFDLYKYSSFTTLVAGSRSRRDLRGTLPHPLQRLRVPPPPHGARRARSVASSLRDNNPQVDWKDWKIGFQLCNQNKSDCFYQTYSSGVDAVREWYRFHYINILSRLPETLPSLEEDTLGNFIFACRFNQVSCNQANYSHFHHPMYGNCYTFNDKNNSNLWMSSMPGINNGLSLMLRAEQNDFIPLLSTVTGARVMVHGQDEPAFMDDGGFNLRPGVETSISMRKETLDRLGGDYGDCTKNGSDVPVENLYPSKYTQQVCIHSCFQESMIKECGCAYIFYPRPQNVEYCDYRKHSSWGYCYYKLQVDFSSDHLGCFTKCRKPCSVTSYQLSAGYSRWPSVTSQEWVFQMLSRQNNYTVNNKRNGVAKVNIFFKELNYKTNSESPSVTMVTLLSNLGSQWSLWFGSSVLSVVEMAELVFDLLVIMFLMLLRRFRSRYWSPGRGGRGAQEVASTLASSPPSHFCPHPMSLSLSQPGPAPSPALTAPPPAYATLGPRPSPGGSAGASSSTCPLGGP
T2 sequence (P51170 whole entry): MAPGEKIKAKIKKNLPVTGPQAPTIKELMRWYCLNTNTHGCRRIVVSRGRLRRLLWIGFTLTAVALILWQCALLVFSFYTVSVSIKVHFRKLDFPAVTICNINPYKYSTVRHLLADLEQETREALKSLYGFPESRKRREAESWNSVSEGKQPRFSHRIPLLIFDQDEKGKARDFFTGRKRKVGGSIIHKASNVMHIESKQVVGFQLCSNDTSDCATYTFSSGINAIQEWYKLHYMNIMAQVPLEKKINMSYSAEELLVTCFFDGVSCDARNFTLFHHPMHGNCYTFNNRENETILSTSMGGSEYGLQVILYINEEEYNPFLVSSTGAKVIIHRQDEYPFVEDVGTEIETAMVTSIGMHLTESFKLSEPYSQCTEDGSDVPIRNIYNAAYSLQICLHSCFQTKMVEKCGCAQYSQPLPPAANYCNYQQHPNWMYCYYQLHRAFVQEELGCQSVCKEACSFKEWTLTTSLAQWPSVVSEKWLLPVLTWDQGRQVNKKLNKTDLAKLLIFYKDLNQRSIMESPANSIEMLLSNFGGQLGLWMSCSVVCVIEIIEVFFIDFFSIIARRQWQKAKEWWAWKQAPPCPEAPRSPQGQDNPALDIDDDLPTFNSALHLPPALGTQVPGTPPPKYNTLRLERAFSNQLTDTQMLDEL
Chain of WT-CFTR (P13569 whole entry): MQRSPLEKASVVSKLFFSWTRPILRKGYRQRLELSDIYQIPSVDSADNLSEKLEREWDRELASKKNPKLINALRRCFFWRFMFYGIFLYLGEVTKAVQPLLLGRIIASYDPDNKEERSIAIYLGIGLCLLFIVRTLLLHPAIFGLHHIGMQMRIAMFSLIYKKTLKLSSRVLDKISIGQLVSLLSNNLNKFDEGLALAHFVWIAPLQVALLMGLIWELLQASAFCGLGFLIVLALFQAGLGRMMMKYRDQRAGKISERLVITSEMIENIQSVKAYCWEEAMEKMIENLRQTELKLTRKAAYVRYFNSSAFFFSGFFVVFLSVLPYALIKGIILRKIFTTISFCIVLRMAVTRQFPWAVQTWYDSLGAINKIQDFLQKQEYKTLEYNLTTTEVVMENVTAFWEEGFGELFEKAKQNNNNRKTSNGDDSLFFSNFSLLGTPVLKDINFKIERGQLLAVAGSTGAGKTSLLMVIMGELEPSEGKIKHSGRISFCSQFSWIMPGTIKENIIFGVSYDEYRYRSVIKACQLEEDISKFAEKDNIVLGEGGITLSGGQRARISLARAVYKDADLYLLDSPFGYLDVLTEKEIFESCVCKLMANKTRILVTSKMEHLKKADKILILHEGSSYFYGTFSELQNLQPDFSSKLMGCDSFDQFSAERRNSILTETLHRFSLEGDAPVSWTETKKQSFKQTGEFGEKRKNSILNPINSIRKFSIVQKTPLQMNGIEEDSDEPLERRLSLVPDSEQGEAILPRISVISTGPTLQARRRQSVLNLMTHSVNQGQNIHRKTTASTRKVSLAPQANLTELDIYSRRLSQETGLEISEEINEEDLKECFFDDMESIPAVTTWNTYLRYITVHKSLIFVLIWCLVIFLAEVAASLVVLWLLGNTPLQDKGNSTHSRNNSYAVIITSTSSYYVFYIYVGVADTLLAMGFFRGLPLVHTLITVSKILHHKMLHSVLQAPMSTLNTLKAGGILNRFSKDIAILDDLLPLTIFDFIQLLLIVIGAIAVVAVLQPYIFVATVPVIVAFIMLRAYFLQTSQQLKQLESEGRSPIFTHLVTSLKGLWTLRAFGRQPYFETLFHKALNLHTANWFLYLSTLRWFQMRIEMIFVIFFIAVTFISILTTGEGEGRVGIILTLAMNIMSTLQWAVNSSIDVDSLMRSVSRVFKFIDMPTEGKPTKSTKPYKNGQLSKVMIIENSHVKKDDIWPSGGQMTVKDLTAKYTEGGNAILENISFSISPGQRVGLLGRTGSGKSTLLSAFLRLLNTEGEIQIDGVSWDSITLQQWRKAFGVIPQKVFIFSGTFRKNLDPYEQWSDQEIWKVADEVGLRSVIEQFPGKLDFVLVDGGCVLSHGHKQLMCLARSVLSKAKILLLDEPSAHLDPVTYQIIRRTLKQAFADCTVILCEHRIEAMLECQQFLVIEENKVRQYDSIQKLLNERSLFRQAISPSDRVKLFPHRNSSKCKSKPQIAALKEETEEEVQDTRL

For COc1cc(-c2oc3cc(O)cc(O)c3c(=O)c2O)ccc1O [isorhamnetin], the “ANO1 function (apical membrane current)” value (human ANO1) was “did not alter”, the “intracellular cAMP levels” value (intracellular cAMP) was “did not alter” and the “CFTR Cl- currents (whole-cell)” value (WT-CFTR) was “fully activated”. The “ENaC function (short-circuit current)” value (ENaC) was “did not alter”, the “corneal erosion (fluorescein staining)” value [1] was “significantly reduced” and the “tear volume in dry eye mice” value [1] was “increased”.
